Experimental data as given in US20030176314A1, “Compounds for the treatment of pain” (priority 2001, published 2003).

Legend:
[1] = target: T1, human α1D adrenergic receptor (Homo sapiens, UniProt P25100); experiment: Binding at human α1D adrenergic receptor; settings: Table 8; read-out: hα1D Ki
T1 construct: host or cells: LM(tk-) cells, line L-α1A
T1 sequence (P25100 1-572): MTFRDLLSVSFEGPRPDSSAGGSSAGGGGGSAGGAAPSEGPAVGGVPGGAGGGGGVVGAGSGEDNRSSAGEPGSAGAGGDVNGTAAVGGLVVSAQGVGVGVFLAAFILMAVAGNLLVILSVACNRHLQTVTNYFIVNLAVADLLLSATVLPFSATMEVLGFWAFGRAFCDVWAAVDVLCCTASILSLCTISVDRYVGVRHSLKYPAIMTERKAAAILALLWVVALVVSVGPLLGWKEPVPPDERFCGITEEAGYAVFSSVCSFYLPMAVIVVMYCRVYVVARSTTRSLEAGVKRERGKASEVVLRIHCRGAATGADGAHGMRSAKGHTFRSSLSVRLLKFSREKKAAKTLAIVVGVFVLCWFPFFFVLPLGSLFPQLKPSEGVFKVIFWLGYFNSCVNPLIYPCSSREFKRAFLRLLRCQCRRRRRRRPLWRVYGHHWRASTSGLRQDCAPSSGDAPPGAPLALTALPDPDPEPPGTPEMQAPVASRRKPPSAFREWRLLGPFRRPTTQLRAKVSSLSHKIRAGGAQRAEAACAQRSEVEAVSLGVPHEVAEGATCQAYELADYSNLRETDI
Description: (§1) α1 Human Adrenergic Receptors: To determine the binding of compounds to human α1 receptors, LM(tk−) cell lines stably transfected with the genes encoding the α1a, α1b, and α1d receptors were used. The nomenclature describing the α1 receptors was changed recently, such that the receptor formerly designated α1a is now designated α1d, and the receptor formerly designated α1c is now designated α1a. The cell lines expressing these receptors were deposited with the ATCC before the nomenclature change and reflect the subtype designations formerly assigned to these receptors. Thus, the cell line expressing the receptor described herein as the α1a receptor was deposited with the ATCC on Sep. […] The cell line expressing receptor described herein as the α1d receptor was deposited with the ATCC on Sep. […] The cell line expressing the α1b receptor is designated L-α1B, and was deposited on Sep.
(§2) The binding affinity (Ki) of these compounds were tested according to the protocols described herein at the following receptors; human α1A, α1B, α1D, α2A, α2B, and α2C adrenergic receptors; human Y1, Y2, Y4, and Y5 receptors; and N-Methyl-D-aspartic acid (NMDA) receptor channels. The binding interactions of these compounds were additionally tested at the norepinephrine (NE) transporter (NE uptake) and serotonin (5-hydroxytryptamine (5HT)) transporter (5HT uptake) according to protocols described herein

[2] = target: T2, human α1B adrenergic receptor (Homo sapiens, UniProt P35368); experiment: Binding at human α1B adrenergic receptor; settings: Table 8; read-out: hα1B Ki
T2 construct: host or cells: LM(tk-) cells, line L-α1B
T2 sequence (P35368 1-520): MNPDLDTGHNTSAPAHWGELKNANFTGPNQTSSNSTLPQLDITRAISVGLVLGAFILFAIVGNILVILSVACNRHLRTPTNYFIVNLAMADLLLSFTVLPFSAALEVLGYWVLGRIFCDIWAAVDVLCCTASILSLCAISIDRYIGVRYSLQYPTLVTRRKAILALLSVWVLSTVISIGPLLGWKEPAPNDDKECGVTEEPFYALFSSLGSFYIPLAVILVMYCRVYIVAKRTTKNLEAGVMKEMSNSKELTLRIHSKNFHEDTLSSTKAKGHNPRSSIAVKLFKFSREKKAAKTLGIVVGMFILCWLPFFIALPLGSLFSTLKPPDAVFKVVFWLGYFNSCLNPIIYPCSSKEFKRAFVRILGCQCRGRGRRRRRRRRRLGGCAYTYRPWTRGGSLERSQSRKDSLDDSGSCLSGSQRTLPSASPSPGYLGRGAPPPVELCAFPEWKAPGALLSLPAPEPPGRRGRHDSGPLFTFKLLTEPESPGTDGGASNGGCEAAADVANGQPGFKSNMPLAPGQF
Description: as §1, §2

rat NPFF2 receptor = target: T3, rat NPFF2 receptor (Rattus norvegicus, UniProt Q9EQD2); experiment: Functional assay (agonist potency, intrinsic activity) at cloned rat NPFF2 receptor; assay type: cell-based; settings: Table 7, intrinsic activity
T3 construct: The full-length NPFF2 was amplified from rat spinal cord cDNA; expressed in transfected cells; host or cells: not given
T3 sequence (Q9EQD2 whole entry): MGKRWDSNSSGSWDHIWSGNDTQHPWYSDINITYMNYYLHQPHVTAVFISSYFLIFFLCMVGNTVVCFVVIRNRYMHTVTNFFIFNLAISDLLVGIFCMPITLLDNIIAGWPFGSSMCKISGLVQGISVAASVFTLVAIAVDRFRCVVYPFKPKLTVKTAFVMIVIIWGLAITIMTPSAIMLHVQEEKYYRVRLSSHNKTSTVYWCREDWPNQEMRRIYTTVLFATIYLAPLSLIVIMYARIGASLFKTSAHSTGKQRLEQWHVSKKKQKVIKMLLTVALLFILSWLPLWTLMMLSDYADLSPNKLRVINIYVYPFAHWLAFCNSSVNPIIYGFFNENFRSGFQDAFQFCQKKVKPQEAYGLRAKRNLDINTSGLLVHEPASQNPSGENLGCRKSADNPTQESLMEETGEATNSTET

[3] = target: T4, human α1A adrenergic receptor (Homo sapiens, UniProt P35348); experiment: Binding at human α1A adrenergic receptor; settings: Table 8; read-out: hα1A Ki
T4 construct: host or cells: LM(tk-) cells, line L-α1C
T4 sequence (P35348 1-466): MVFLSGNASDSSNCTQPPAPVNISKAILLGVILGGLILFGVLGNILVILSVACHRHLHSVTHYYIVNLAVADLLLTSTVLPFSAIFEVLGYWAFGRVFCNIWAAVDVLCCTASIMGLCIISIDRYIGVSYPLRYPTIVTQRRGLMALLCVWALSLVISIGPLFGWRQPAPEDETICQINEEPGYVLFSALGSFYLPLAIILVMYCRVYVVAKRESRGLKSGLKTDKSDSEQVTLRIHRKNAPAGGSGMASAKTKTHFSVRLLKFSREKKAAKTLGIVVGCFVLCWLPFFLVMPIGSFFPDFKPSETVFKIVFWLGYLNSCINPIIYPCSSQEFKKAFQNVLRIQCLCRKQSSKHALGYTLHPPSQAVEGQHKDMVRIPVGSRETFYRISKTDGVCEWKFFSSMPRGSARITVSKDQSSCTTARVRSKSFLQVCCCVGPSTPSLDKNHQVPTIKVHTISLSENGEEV
Description: as §1, §2

human Y4 receptor = target: T5, human Y4 receptor (Homo sapiens, UniProt P50391); experiment: Binding at human neuropeptide Y Y4 receptor; settings: Table 8; read-out: hY4 Ki
T5 construct: host or cells: L cells, line L-hY4-3
T5 sequence (P50391 whole entry): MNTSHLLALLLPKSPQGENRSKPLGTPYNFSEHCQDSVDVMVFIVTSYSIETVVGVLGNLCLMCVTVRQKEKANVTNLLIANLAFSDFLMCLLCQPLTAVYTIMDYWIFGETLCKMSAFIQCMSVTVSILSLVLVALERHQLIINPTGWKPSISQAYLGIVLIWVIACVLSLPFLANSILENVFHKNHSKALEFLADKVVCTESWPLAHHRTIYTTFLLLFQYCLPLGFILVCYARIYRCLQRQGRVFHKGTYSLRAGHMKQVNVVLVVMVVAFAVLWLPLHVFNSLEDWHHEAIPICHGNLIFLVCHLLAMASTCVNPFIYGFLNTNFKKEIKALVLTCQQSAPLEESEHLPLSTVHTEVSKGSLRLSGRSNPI
Description: (§3) Neuropeptide receptors: Stably transfected cell lines which may be used for binding experiments include, for the Y1 receptor, 293-hY1-5 (deposited Jun. 4, 1996, under ATCC Accession No. CRL-12121); for the Y2 receptor, 293-hY2-10 (deposited Jan. 27, 1994, under ATCC Accession No. CRL-11837); for the Y4 receptor, L-hY4-3 (deposited Jan. 11, 1995, under ATCC Accession No. CRL 11779); and for the Y5 receptor, L-hY5-7 (deposited Nov. 15, 1995, under ATCC Accession No. CRL 11995).
(§4) Binding assays using the NPY receptors may be carried out according to the procedures described in U.S. Pat. No. 5,602,024, the disclosure of which is hereby incorporated by reference in its entirety into this application.
as §2

[4] = target: T6, norepinephrine (NE) transporter (Rattus norvegicus, UniProt Q63380); experiment: Binding at native norepinephrine transporter (NE uptake); settings: Table 8
T6 construct: evaluated at native, tissue-derived transporters; from tissue
T6 sequence (Q63380 1-617): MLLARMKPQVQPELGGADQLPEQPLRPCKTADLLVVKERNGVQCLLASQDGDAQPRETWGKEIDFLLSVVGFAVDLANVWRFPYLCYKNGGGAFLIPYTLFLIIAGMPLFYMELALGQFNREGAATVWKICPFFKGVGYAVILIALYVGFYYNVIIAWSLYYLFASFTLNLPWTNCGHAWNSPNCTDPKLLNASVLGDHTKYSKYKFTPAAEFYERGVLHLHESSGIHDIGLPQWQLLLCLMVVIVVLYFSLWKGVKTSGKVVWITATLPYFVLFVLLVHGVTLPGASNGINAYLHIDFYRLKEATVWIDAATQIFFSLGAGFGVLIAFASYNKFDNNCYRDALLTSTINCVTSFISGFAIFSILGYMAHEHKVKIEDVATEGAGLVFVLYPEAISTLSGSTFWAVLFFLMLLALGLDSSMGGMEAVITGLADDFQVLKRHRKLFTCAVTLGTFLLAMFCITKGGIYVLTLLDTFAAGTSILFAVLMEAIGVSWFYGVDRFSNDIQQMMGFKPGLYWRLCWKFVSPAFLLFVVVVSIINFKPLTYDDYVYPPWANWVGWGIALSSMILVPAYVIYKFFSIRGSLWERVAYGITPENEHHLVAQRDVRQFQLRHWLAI
Protocol: (§5) Transporters: The binding properties of compounds were evaluated at native, tissue-derived transporters, namely serotonin (5HT) transporter and norepinephrine (NE) transporter, according to protocols described in Owens (1997), the disclosure of which is hereby incorporated by reference in its entirety into this application.
as §2

human Y2 receptor = target: T7, human Y2 receptor (Homo sapiens, UniProt P49146); experiment: Binding at human neuropeptide Y Y2 receptor; settings: Table 8; read-out: hY2 Ki
T7 construct: host or cells: 293 cells, line 293-hY2-10
T7 sequence (P49146 1-381): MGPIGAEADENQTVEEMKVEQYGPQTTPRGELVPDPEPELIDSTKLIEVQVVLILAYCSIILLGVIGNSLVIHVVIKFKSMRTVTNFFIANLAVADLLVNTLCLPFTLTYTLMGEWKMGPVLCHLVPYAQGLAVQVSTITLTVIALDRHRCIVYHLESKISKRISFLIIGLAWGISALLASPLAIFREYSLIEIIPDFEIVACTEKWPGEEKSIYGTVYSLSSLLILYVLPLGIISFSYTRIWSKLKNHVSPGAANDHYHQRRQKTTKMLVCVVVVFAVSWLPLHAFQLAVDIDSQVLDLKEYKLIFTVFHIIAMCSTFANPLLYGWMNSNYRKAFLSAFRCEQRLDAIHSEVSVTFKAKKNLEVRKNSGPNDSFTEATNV
Description: as §3, §4, §2

human Y5 receptor = target: T8, human Y5 receptor (Homo sapiens, UniProt Q15761); experiment: Binding at human neuropeptide Y Y5 receptor; settings: Table 8; read-out: hY5 Ki
T8 construct: host or cells: L cells, line L-hY5-7
T8 sequence (Q15761 1-445): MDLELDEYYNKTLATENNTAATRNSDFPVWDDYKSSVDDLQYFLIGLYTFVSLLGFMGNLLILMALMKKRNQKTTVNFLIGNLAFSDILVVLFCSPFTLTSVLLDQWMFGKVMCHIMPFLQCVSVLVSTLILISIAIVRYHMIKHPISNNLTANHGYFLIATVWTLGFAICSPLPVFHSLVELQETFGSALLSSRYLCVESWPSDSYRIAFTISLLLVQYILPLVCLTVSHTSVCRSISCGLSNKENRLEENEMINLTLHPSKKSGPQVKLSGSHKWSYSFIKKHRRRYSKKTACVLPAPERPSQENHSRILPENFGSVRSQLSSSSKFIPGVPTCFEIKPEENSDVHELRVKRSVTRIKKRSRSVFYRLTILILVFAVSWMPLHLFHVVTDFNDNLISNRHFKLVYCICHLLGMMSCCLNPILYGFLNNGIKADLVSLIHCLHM
Description: as §3, §4, §2

human Y1 receptor = target: T9, human Y1 receptor (Homo sapiens, UniProt P25929); experiment: Binding at human neuropeptide Y Y1 receptor; settings: Table 8; read-out: hY1 Ki
T9 construct: host or cells: 293 cells, line 293-hY1-5
T9 sequence (P25929 1-384): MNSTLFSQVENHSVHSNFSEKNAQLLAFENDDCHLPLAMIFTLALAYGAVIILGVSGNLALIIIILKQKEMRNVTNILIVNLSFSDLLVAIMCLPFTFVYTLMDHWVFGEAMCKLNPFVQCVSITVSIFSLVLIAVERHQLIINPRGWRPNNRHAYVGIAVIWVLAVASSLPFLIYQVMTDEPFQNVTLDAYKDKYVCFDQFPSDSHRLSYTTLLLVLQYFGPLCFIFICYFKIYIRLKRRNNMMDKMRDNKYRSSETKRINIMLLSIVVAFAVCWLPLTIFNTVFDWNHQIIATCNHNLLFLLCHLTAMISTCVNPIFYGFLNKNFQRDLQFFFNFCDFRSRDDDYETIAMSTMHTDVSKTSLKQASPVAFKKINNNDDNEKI
Description: as §3, §4, §2

[5] = target: T10, serotonin (5HT) transporter (Rattus norvegicus, UniProt P31652); experiment: Binding at native serotonin transporter (5HT uptake); settings: Table 8
T10 construct: evaluated at native, tissue-derived transporters; from tissue
T10 sequence (P31652 whole entry): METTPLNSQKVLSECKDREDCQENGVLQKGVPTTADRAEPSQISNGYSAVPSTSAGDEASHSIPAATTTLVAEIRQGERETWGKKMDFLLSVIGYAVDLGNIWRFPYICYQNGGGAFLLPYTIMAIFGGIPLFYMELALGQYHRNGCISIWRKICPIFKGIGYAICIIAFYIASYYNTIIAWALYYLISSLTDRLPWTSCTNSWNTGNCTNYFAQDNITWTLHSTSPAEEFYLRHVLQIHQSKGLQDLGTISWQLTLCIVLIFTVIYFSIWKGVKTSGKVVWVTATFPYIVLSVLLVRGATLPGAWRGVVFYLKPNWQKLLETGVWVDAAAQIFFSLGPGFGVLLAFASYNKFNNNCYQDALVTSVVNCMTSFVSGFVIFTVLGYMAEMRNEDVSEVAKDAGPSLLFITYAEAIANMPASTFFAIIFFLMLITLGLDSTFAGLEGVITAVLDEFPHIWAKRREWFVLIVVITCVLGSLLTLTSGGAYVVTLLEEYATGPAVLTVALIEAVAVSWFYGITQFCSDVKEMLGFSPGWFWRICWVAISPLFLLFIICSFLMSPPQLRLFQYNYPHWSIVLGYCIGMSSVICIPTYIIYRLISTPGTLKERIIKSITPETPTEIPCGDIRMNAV
Protocol: as §5, §2

Cc1nc(NC(=N)N)nc2ccccc12 [Compound 1001A, N-(4-methyl-2-quinazolinyl)guanidine]
Ki [1]: 12.9 µM | Ki [2]: 9.86 µM | rNPFF2 IA (rat NPFF2 receptor): 16% NPFF | Ki [3]: 5.03 µM

Cc1cc(NC(=N)N)nc2ccccc12 [Compound 6001A, N-(4-methyl-2-quinolinyl)guanidine]
Ki (human Y4 receptor): 14.3 µM | Ki [4]: 12.7 µM | Ki (human Y2 receptor): > 50 µM | Ki (human Y5 receptor): 0.742 µM | Ki (human Y1 receptor): > 50 µM | Ki [5]: 10.5 µM
